Measured values: US12030908B2, “Antimicrobial compounds, compositions, and uses thereof” (Lakewood Amedex, Inc., priority 2017, dated 2024)

Legend:
[1] = pKa measurement; type: physicochemical
[2] = system: Escherichia coli (strain CFT073, TPPS 1041); assay: Initial urinary tract infection model in BALB/c mice, transurethral treatment (Example 9); type: in vivo; conditions: pH 3.5, 1025 mg/kg transurethral
Description: Female BALB/c mice (20-22 g) ordered from Envigo are acclimated to housing conditions and handled in accordance with Animal Use Protocol (AUP) number TP-08. Animals are fed irradiated Teklad Global 29 18 Rodent Diet and water ad libitum. Mice are housed 6/cage in static cages with irradiated ⅛″ Teklad corn cobbedding 7902 inside bioBubble® clean rooms that provide H.E.P.A filtered air into the bubble environment at 100 complete air changes per hour. The environment is controlled to a temperature range of 74°±4° F. and a humidity range of 30-70%. All procedures carried out in this experiment are conducted in compliance with the laws, regulations, and guidelines of the National Institutes of Health and with the approval of the TransPharm Preclinical Solutions Animal Care and Use Committee.
A clinical isolate of Escherichia coli (strain CFT073, TPPS 1041) are procured from the University of Michigan.
The organism is grown overnight at 37° C. in ambient atmosphere on trypticase soy agar plates supplemented with 5% sheep blood cells. The culture is aseptically swabbed and transferred to tubes of trypticase soy broth. The optical density is determined at 600 nm. The culture is diluted to provide an inoculum of approximately 7.5 log10 CFU per mouse in a volume of 30 μL. Instillation of the bacterial challenge constituted time 0 hour for the study. Inoculum counts are estimated before inoculation by optical density and confirmed after inoculation by dilution and back counts.
One hour prior to bacterial challenge, water is removed from animal cages. […]
The primary endpoint used to assess progress of the infection is mean bacterial burden per gram of urinary bladder tissue. […] Colony forming units (CFU) are enumerated and the total bacterial burden per gram of urinary bladder tissue homogenate is calculated.
The geometric mean CFU, along with standard error of the mean (SEM), are calculated using Microsoft Excel and bar charts are prepared for the data using GraphPad Prism v. […]

Structure (SMILES): CCCCOP(=O)(O)OC[C@H]1O[C@@H](n2ccc(N)nc2=O)C[C@@H]1OP(=O)(O)OCCCC [Nu-8, sodium ((2R,3S,5R)-5-(4-amino-2-oxopyrimidin-1(2H)-yl)-3-((butoxyoxidophosphor-yl)oxy)tetrahydrofuran-2-yl)methyl butyl phosphate]
- pKa [1]: 3.20
- mean bladder CFU burden ([2]; 20 minutes post-treatment): 2.9 log10
- mean bladder CFU burden ([2]; 60 minutes post-treatment): 3.7 log10 CFU
